Laboratory results taken from patent US5536645A, “Nutritive medium for the culture of microorganism” (priority 1993, dated 1996).
Read-outs that look alike come from different tables or passages of the source.

What was measured:
Type in all cases: cell-based
K. pneumoniae = assay: Equivalent MIC of antibiotics in VITEK cards, gram-negative bacteria (Table 3); conditions: for MIC: Klebsiella pneumoniae, 12 h
Method: (§1) With the determination of the sensitivity to antibiotics in mind, a suspension of 0.5 MF (Mac Farland) in physiological water was prepared from bacterial colonies selected in Petri dishes, reading being carried out on an ATB 1550 densitometer marketed by BIOMERIEUX (ATB trade mark). The suspension obtained was respectively diluted to 1/100th in the medium of the invention and Mueller-Hinton medium. VITEK cards (VITEK trade mark) containing different antibiotics at 10 concentrations were filled in vacuo into a VITEK apparatus marketed by BIOMERIEUX-VITEK. The cards were incubated for 12 hours in a VITEK incubator/reader marketed by BIOMERIEUX-VITEK. The growth kinetics were visualized and interpreted and an equivalent MIC was determined (equivalent MIC: equivalent minimum inhibitory concentration, that is to say the smallest concentration for which no bacterial growth is detected by the apparatus).
(§2) IST refers to the medium of the invention and MH signifies Mueller-Hinton medium.
(§3) S, I and R respectively signify "sensitive", "intermediate" and "resistant" with reference to the critical concentrations defined by the NCCLS (National Committee for Clinical Laboratory Standards).

P. aeruginosa = assay: as above; conditions: for MIC: Pseudomonas aeruginosa, 12 h, read-out: Equivalent MIC
Method: as §1, §2, §3

S. marcescens = assay: as above; conditions: for MIC: Serratia marcescens, 12 h, read-out: Equivalent MIC
Method: as §1, §2, §3

S. epidermidis = assay: microbe, parasite or virus in culture; conditions: for MIC: Staphylococcus epidermidis, 12 h, read-out: Equivalent MIC
Method: as §1, §2
(§4) *A range of concentration, of ratio 2, was tested for each antibiotic in
(§5) each of the abovementioned concentration margins.
as §3

S. aureus = assay: microbe, parasite or virus in culture; conditions: for MIC: Staphylococcus aureus, read-out: Equivalent MIC
Method: as §1, §2, §4, §5, §3

E. faecalis = assay: Equivalent MIC of antibiotics in VITEK cards, gram-positive bacteria (Table 4); conditions: for MIC: Enterococcus faecalis, 12 h
Method: as §1, §2, §4, §5, §3

With CCN1CCN(C(=O)N[C@@H](C(=O)N[C@@H]2C(=O)N3[C@@H]2SC(C)(C)[C@@H]3C(=O)O)c2ccccc2)C(=O)C1=O [piperacillin] the “NCCLS Category” value (K. pneumoniae; AP 14, MH medium) was “R”, the “NCCLS Category” value (K. pneumoniae; CDC 2174, IST medium) was “S” and the “NCCLS Category” value (K. pneumoniae; CDC 2174, MH medium) was “S”. The “NCCLS Category” value (K. pneumoniae; CDC 2182, IST medium) was “S”, the “NCCLS Category” value (K. pneumoniae; CDC 2182, MH medium) was “I” and the MIC (K. pneumoniae; AP 14, IST medium) was 64 µg/mL. For the same compound, the MIC (K. pneumoniae; AP 14, MH medium) was 256 µg/mL, the MIC (K. pneumoniae; CDC 2174, IST medium) was 8 µg/mL and the MIC (K. pneumoniae; CDC 2174, MH medium) was 8 µg/mL. For the same compound, the MIC (K. pneumoniae; CDC 2182, IST medium) was 16 µg/mL, the MIC (K. pneumoniae; CDC 2182, MH medium) was 32 µg/mL and the “NCCLS Category” value (P. aeruginosa; AP 8, IST medium) was “S”. The “NCCLS Category” value (P. aeruginosa; AP 8, MH medium) was “S”, the “NCCLS Category” value (P. aeruginosa; AP 13, IST medium) was “S” and the “NCCLS Category” value (P. aeruginosa; AP 13, MH medium) was “S”. For the same compound, the MIC (P. aeruginosa; AP 8, IST medium) was 4 µg/mL, the MIC (P. aeruginosa; AP 8, MH medium) was 4 µg/mL and the MIC (P. aeruginosa; AP 13, IST medium) was 8 to 16 µg/mL. For the same compound, the MIC (P. aeruginosa; AP 13, MH medium) was 16 µg/mL, the “NCCLS Category” value (S. marcescens; CDC 2021, IST medium) was “S” and the “NCCLS Category” value (S. marcescens; CDC 2021, MH medium) was “S”. The “NCCLS Category” value (S. marcescens; CDC 2162, IST medium) was “R”, the “NCCLS Category” value (S. marcescens; CDC 2162, MH medium) was “R” and the MIC (S. marcescens; CDC 2021, IST medium) was 2 µg/mL. It also gave an MIC (S. marcescens; CDC 2021, MH medium) of 2 µg/mL, an MIC (S. marcescens; CDC 2162, IST medium) greater than 256 µg/mL and an MIC (S. marcescens; CDC 2162, MH medium) greater than 256 µg/mL.

gentamicin was tested, and the “Equivalent MIC” value (K. pneumoniae; CDC 2177, IST medium) was 0.5 mg/L, the “NCCLS Category” value (K. pneumoniae; CDC 2177, IST medium) was “S” and the “Equivalent MIC” value (K. pneumoniae; CDC 2177, MH medium) was 0.25 mg/L. For the same compound, the “NCCLS Category” value (K. pneumoniae; CDC 2177, MH medium) was “S”, the “Equivalent MIC” value (K. pneumoniae; CDC 2249, IST medium) was 8 mg/L and the “NCCLS Category” value (K. pneumoniae; CDC 2249, IST medium) was “I”. The “Equivalent MIC” value (K. pneumoniae; CDC 2249, MH medium) was 8 mg/L, the “NCCLS Category” value (K. pneumoniae; CDC 2249, MH medium) was “I” and the “Equivalent MIC” value (K. pneumoniae; CDC 2279, IST medium) was 4 mg/L. The “NCCLS Category” value (K. pneumoniae; CDC 2279, IST medium) was “S”, the “Equivalent MIC” value (K. pneumoniae; CDC 2279, MH medium) was 4 mg/L and the “NCCLS Category” value (K. pneumoniae; CDC 2279, MH medium) was “S”. For the same compound, the “Equivalent MIC” value (P. aeruginosa; CDC 2009, IST medium) was 16 to 32 mg/L, the “NCCLS Category” value (P. aeruginosa; CDC 2009, IST medium) was “R” and the “Equivalent MIC” value (P. aeruginosa; CDC 2009, MH medium) was 32 mg/L. For the same compound, the “NCCLS Category” value (P. aeruginosa; CDC 2009, MH medium) was “R”, the “Equivalent MIC” value (P. aeruginosa; CDC 2239, IST medium) was 2 mg/L and the “NCCLS Category” value (P. aeruginosa; CDC 2239, IST medium) was “S”. The “Equivalent MIC” value (P. aeruginosa; CDC 2239, MH medium) was 2 mg/L, the “NCCLS Category” value (P. aeruginosa; CDC 2239, MH medium) was “S” and the “Equivalent MIC” value (P. aeruginosa; CDC 2257, IST medium) was 0.5 to 1 mg/L. The “NCCLS Category” value (P. aeruginosa; CDC 2257, IST medium) was “S”, the “Equivalent MIC” value (P. aeruginosa; CDC 2257, MH medium) was 0.5 mg/L and the “NCCLS Category” value (P. aeruginosa; CDC 2257, MH medium) was “S”.

In the case of CN[C@H](CC(C)C)C(=O)N[C@H]1C(=O)N[C@@H](CC(N)=O)C(=O)N[C@H]2C(=O)N[C@H]3C(=O)N[C@H](C(=O)N[C@H](C(=O)O)c4cc(O)cc(O)c4-c4cc3ccc4O)[C@H](O)c3ccc(c(Cl)c3)Oc3cc2cc(c3O[C@@H]2O[C@H](CO)[C@@H](O)[C@H](O)[C@H]2O[C@H]2C[C@](C)(N)[C@H](O)[C@H](C)O2)Oc2ccc(cc2Cl)[C@H]1O [vancomycin], the “NCCLS Category” value (S. epidermidis; CDC 2024, IST medium) is reported as “S”, the “NCCLS Category” value (S. epidermidis; CDC 2024, MH medium) is reported as “S” and the “NCCLS Category” value (S. epidermidis; CDC 2105, IST medium) is reported as “S”. For the same compound, the “NCCLS Category” value (S. epidermidis; CDC 2105, MH medium) was “S”, the “NCCLS Category” value (S. epidermidis; CDC 2234, IST medium) was “S” and the “NCCLS Category” value (S. epidermidis; CDC 2234, MH medium) was “S”. For the same compound, the MIC (S. epidermidis; CDC 2024, IST medium) was 4 µg/mL, the MIC (S. epidermidis; CDC 2024, MH medium) was 4 µg/mL and the MIC (S. epidermidis; CDC 2105, IST medium) was 4 µg/mL. The MIC (S. epidermidis; CDC 2105, MH medium) was 2 µg/mL, the MIC (S. epidermidis; CDC 2234, IST medium) was 2 µg/mL and the MIC (S. epidermidis; CDC 2234, MH medium) was 2 µg/mL. For the same compound, the “NCCLS Category” value (S. aureus; ATCC 29213, IST medium) was “S”, the “NCCLS Category” value (S. aureus; ATCC 29213, MH medium) was “S” and the “NCCLS Category” value (S. aureus; CDC 2194, IST medium) was “S”. The “NCCLS Category” value (S. aureus; CDC 2194, MH medium) was “S”, the “NCCLS Category” value (S. aureus; CDC 2215, IST medium) was “S” and the “NCCLS Category” value (S. aureus; CDC 2215, MH medium) was “S”. It also gave an MIC (S. aureus; 12 h, CDC 2194, IST medium) of 2 µg/mL, an MIC (S. aureus; 12 h, CDC 2194, MH medium) of 1 µg/mL and an MIC (S. aureus; 12 h, CDC 2215, IST medium) of 2 µg/mL. The MIC (S. aureus; 12 h, CDC 2215, MH medium) was 1 µg/mL, the MIC (S. aureus; ATCC29213, 12 h, ATCC 29213, IST medium) was 2 µg/mL and the MIC (S. aureus; ATCC29213, 12 h, ATCC 29213, MH medium) was 2 µg/mL. For the same compound, the “NCCLS Category” value (E. faecalis; CDC 2017, IST medium) was “I”, the “NCCLS Category” value (E. faecalis; CDC 2017, MH medium) was “I” and the “NCCLS Category” value (E. faecalis; CDC 2225, IST medium) was “S”. The “NCCLS Category” value (E. faecalis; CDC 2225, MH medium) was “S”, the “NCCLS Category” value (E. faecalis; CDC 2230, IST medium) was “S” and the “NCCLS Category” value (E. faecalis; CDC 2230, MH medium) was “S”. The MIC (E. faecalis; CDC 2017, IST medium) was 8 µg/mL, the MIC (E. faecalis; CDC 2017, MH medium) was 16 µg/mL and the MIC (E. faecalis; CDC 2225, IST medium) was 4 µg/mL. For the same compound, the MIC (E. faecalis; CDC 2225, MH medium) was 4 µg/mL, the MIC (E. faecalis; CDC 2230, IST medium) was 1 µg/mL and the MIC (E. faecalis; CDC 2230, MH medium) was 1 to 2 µg/mL.
